# Experiments:
# [1] = system: Streptococcus pneumoniae (ATCC 49619); test: Antibacterial MIC assay (microbroth dilution, CLSI); type: cell-based; conditions: 35° C., 16-20 hours; for MIC Streptococcus pneumoniae (ATCC 49619): 3% lysed horse blood
# From the text: (§1) All MIC testing of bacteria followed the Clinical and Laboratory Standards Institute (CLSI) guidelines for antimicrobial testing of aerobic bacteria (Methods for Dilution Antimicrobial Susceptibility Tests for Bacteria that Grow Aerobically; Approved Standard—Tenth Edition, M07-A10; Performance Standards for Antimicrobial Susceptibility Testing; Twenty-fifth Informational Supplement, M100-S25).
# (§2) Briefly, the microbroth dilution MIC method was used to quantitatively measure the in vitro antibacterial activity of a compound against a given bacterial isolate. The following bacterial strains were evaluated: Staphylococcus aureus, MRSA (ATCC 33591) and Streptococcus pneumoniae (ATCC 49619). Bacteria were grown in cation-adjusted Mueller-Hinton broth, with additions as required per species growth requirements (e.g. 3% lysed horse blood for fastidious organisms such as S. pneumoniae). A direct colony suspension in saline was prepared from colonies on an overnight agar plate to achieve a turbidity equivalent to 0.5 McFarland standard, which was subsequently diluted into the assay plate to achieve 5×10^5 CFU/mL. Assays plates were prepared by 2-fold dilution of compound across the plate and included a positive growth control.
# [2] = system: Staphylococcus aureus, MRSA (ATCC 33591); test: as above; type: cell-based; conditions: 35° C., 16-20 hours
# From the text: as §1, §2
SMILES,"MIC ([1]; Streptococcus pneumoniae, ATCC49619, 3% lysed horse blood) [µg/mL]",MIC ([2]; Staphylococcus aureus) [µg/mL],MIC Streptococcus pneumoniae (ATCC 49619) [1],"MIC Staphylococcus aureus, MRSA (ATCC 33591) [2]"
"C[C@@H]1CC[C@@]23CCC(=O)[C@H]2[C@]1(C)[C@H](OC(=O)COc1ccc2c(c1F)B(O)OC2)C[C@@](C)(CCN1CCOCC1)[C@@H](O)[C@@H]3C [Compound 41, (3aR,4R,5R,7R,8S,9R,9aS,12R)-8-hydroxy-4,7,9,12-tetramethyl-7-(2-morpholinoethyl)-3-oxodecahydro-4,9a-propanocyclopenta[8]annulen-5-yl 2-((7-fluoro-1-hydroxy-1,3-dihydrobenzo[c][1,2]oxaborol-6-yl)oxy)acetate]",4 to 32,4 to 32,,
"CCN(CC)CC[C@]1(C)C[C@@H](OC(=O)COc2ccc3c(c2F)B(O)OC3)[C@]2(C)[C@H](C)CC[C@]3(CCC(=O)[C@H]32)[C@@H](C)[C@@H]1O [Compound 42, (3aR,4R,5R,7R,8S,9R,9aS,12R)-7-(2-(diethylamino)ethyl)-8-hydroxy-4,7,9,12-tetramethyl-3-oxodecahydro-4,9a-propanocyclopenta[8]annulen-5-yl2-((7-fluoro-1-hydroxy-1,3-dihydrobenzo[c][1,2]oxaborol-6-yl)oxy)acetate]",,,D (≥64 is D),C (4-32 is C)
"C[C@@H]1CC[C@@]23CCC(=O)[C@H]2[C@]1(C)[C@H](OC(=O)COc1ccc2c(c1F)B(O)OC2)C[C@@](C)(C=NO)[C@@H](O)[C@@H]3C [Compound 43, (3aR,4R,5R,7S,8S,9R,9aS,12R)-8-hydroxy-7-((hydroxyimino)methyl)-4,7,9,12-tetramethyl-3-oxodecahydro-4,9a-propanocyclopenta[8]annulen-5-yl2-((7-fluoro-1-hydroxy-1,3-dihydrobenzo[c][1,2]oxaborol-6-yl)oxy)acetate]",,,C (4-32 is C),A (MIC of ≤0.25 is A)
"CON=C[C@]1(C)C[C@@H](OC(=O)COc2ccc3c(c2F)B(O)OC3)[C@]2(C)[C@H](C)CC[C@]3(CCC(=O)[C@H]32)[C@@H](C)[C@@H]1O [Compound 44, (3aR,4R,5R,7S,8S,9R,9aS,12R)-8-hydroxy-7-((methoxyimino)methyl)-4,7,9,12-tetramethyl-3-oxodecahydro-4,9a-propanocyclopenta[8]annulen-5-yl2-((7-fluoro-1-hydroxy-1,3-dihydrobenzo[c][1,2]oxaborol-6-yl)oxy)acetate]",,,C (4-32 is C),A (MIC of ≤0.25 is A)
"CONC[C@]1(C)C[C@@H](OC(=O)COc2ccc3c(c2F)B(O)OC3)[C@]2(C)[C@H](C)CC[C@]3(CCC(=O)[C@H]32)[C@@H](C)[C@@H]1O [Compound 45, (3aR,4R,5R,7S,8S,9R,9aS,12R)-8-hydroxy-7-((methoxyamino)methyl)-4,7,9,12-tetramethyl-3-oxodecahydro-4,9a-propanocyclopenta[8]annulen-5-yl2-((7-fluoro-1-hydroxy-1,3-dihydrobenzo[c][1,2]oxaborol-6-yl)oxy)acetate]",,,C (4-32 is C),B (0.5-2 is B)
"CC(C)ON=C[C@]1(C)C[C@@H](OC(=O)COc2ccc3c(c2F)B(O)OC3)[C@]2(C)[C@H](C)CC[C@]3(CCC(=O)[C@H]32)[C@@H](C)[C@@H]1O [Compound 46, (3aR,4R,5R,7S,8S,9R,9aS,12R)-8-hydroxy-7-((isopropoxyimino)methyl)-4,7,9,12-tetramethyl-3-oxodecahydro-4,9a-propanocyclopenta[8]annulen-5-yl2-((7-fluoro-1-hydroxy-1,3-dihydrobenzo[c][1,2]oxaborol-6-yl)oxy)acetate]",,,C (4-32 is C),B (0.5-2 is B)
"C[C@@H]1CC[C@@]23CCC(=O)[C@H]2[C@]1(C)[C@H](OC(=O)COc1ccc2c(c1F)B(O)OC2)C[C@@](C)(CN)[C@@H](O)[C@@H]3C [Compound 47, (3aR,4R,5R,7S,8S,9R,9aS,12R)-7-(aminomethyl)-8-hydroxy-4,7,9,12-tetramethyl-3-oxodecahydro-4,9a-propanocyclopenta[8]annulen-5-yl2-((7-fluoro-1-hydroxy-1,3-dihydrobenzo[c][1,2]oxaborol-6-yl)oxy)acetate]",,,C (4-32 is C),B (0.5-2 is B)
"CC(=O)NC[C@]1(C)C[C@@H](OC(=O)COc2ccc3c(c2F)B(O)OC3)[C@]2(C)[C@H](C)CC[C@]3(CCC(=O)[C@H]32)[C@@H](C)[C@@H]1O [Compound 48, (3aR,4R,5R,7S,8S,9R,9aS,12R)-7-(acetamidomethyl)-8-hydroxy-4,7,9,12-tetramethyl-3-oxodecahydro-4,9a-propanocyclopenta[8]annulen-5-yl2-((7-fluoro-1-hydroxy-1,3-dihydrobenzo[c][1,2]oxaborol-6-yl)oxy)acetate]",,,C (4-32 is C),B (0.5-2 is B)
"C[C@@H]1CC[C@@]23CCC(=O)[C@H]2[C@]1(C)[C@H](OC(=O)COc1ccc2c(c1F)B(O)OC2)C[C@@](C)(CN)[C@@H](OS(C)(=O)=O)[C@@H]3C [Compound 50, (3aR,4R,5R,7S,8S,9R,9aS,12R)-7-(aminomethyl)-4,7,9,12-tetramethyl-8-((methylsulfonyl)oxy)-3-oxodecahydro-4,9a-propanocyclopenta[8]annulen-5-yl2-((7-fluoro-1-hydroxy-1,3-dihydrobenzo[c][1,2]oxaborol-6-yl)oxy)acetate]",,,C (4-32 is C),C (4-32 is C)
"Cc1nnc(/C=C/[C@]2(C)C[C@@H](OC(=O)COc3ccc4c(c3F)B(O)OC4)[C@]3(C)[C@H](C)CC[C@]4(CCC(=O)[C@H]43)[C@@H](C)[C@@H]2O)o1 [Compound 51, (3aR,4R,5R,7S,8S,9R,9aS,12R)-8-hydroxy-4,7,9,12-tetramethyl-7-((E)-2-(5-methyl-1,3,4-oxadiazol-2-yl)vinyl)-3-oxodecahydro-4,9a-propanocyclopenta[8]annulen-5-yl2-((7-fluoro-1-hydroxy-1,3-dihydrobenzo[c][1,2]oxaborol-6-yl)oxy)acetate]",,,B (0.5-2 is B),B (0.5-2 is B)
"Cc1noc(/C=C/[C@]2(C)C[C@@H](OC(=O)COc3ccc4c(c3F)B(O)OC4)[C@]3(C)[C@H](C)CC[C@]4(CCC(=O)[C@H]43)[C@@H](C)[C@@H]2O)n1 [Compound 52, (3aR,4R,5R,7S,8S,9R,9aS,12R)-8-hydroxy-4,7,9,12-tetramethyl-7-((E)-2-(3-methyl-1,2,4-oxadiazol-5-yl)vinyl)-3-oxodecahydro-4,9a-propanocyclopenta[8]annulen-5-yl2-((7-fluoro-1-hydroxy-1,3-dihydrobenzo[c][1,2]oxaborol-6-yl)oxy)acetate]",,,A (MIC of ≤0.25 is A),A (MIC of ≤0.25 is A)

# Source: US20220273683A1, “BORON-CONTAINING SMALL MOLECULES” (Bill & Melinda Gates Foundation, priority 2016, published 2022)
